Assay results reported in US20100041756A1, “METHOD OF MODULATING B CELL FUNCTIONING” (priority 2004, published 2010).

Assays:
[1] = system: T cells stimulated with anti-CD3/anti-CD28; assay: Cytokine production by stimulated T cells in vitro (ELISA); assay type: cell-based, mouse
Method: (§1) FIG. 10 is a graphical representation depicting that 3,4-DAA and 3-HAA inhibit B and T cell proliferation in vitro. Purified B and T cells were stimulated for 72 h with anti-CD40 (a), or anti-CD3/anti-CD28 (b) respectively, in the presence of varying doses of 3,4-DAA, or 3-HAA.
(§2) A single cell suspension was prepared from spleen by mincing through a cell strainer, and erythrocytes were lysed using an ammonium chloride solution (Sigma, St Louis, Mo., USA). B cells were positively enriched by using anti-IgM MACS microbeads, and T cells were positively enriched using anti-CD4 MACS microbeads and the MACS system, according to the manufacturer's guidelines (Miltenyi Biotec, Bergisch Gladbach, Germany). Purity was assessed by flow cytometric analysis (B cell>90% CD19+, T cell>90% CD4+). Cells were cultured at 5×10^5 cells/ml in 200 μl complete RPMI, as above, in a flat bottom 96-well plate and cultured for 72 h. B cells were stimulated with anti-CD40 monoclonal antibody (10 μg/ml; BD), and T cells were stimulated with 5 μg/ml plate-bound anti-CD3 (BD), 5 μg/ml soluble anti-CD28 (BD). Tranilast, 3-HAA, or vehicle (DMSO) were incubated at concentrations stated with the cultures. 48 hours after stimulation, 100 μl culture medium was collected, and cells were pulsed with 1 μCi ^3H thymidine per well for 18 h. Cells were then harvested and plates assessed for incorporation. Each assay was performed on a minimum of 3 occasions. Data shown is of one representative experiment, and is expressed as mean+/−SD of triplicate in culture. IFN-γ, IL-10 and IL-5 levels was assessed in the culture medium by ELISA, as above.

[2] = system: DBA/1 mice with established CIA; assay: Treatment of established CIA (Example 4): clinical score, paw-swelling, histology, relapse; assay type: in vivo, mouse
Method: FIG. 6 is a graphical representation of the treatment of established CIA with 3,4-DAA. DBA/1 mice were immunised with type II collagen in CFA and monitored for development of arthritis. On day 1 of arthritis, mice were injected intraperitoneally with 3,4-DAA on a daily basis. Paw thickness was measured with callipers. The clinical scoring system was as follows: 0=normal, 1=slight swelling and/or erythema, and 2=pronounced oedematous swelling. Each limb was graded, giving a maximum score of 8 per mouse. Histological assessment of arthritis was carried out on haematoxylin and eosin stained sections using a scoring system as follows: 0, normal; 1, minimal synovitis without cartilage/bone erosion; 2, synovitis with some marginal erosion but joint architecture maintained; 3, severe synovitis and erosion with loss of normal joint architecture. There were 14 mice/group (data pooled from two separate experiments). *, P<0.05 (compared to control group).
FIG. 9 is a graphical representation depicting the relapse of arthritis 4 days after cessation of therapy. Mice with established CIA (n=6) were treated with 3,4-DAA (400 mg/kg/day) from days 1 to 5 of arthritis and clinical severity of arthritis was monitored up to day 12. Arthritis is seen to relapse at around day 9.
Type II collagen was purified from bovine cartilage, as described [Williams, R. O. 2004, Methods Mol. Med. 98:207-216] and solubilized by stirring overnight at 4° C. in acetic acid (0.1M) or Tris buffer (0.05 M Tris, containing 0.2 M NaCl, pH 7.4). Tranilast was synthesised by Angiogen Pharmaceuticals Pty. Ltd. For in vivo studies Tranilast was dissolved at a maximum concentration of 10 mg/ml in 1% sodium bicarbonate by heating for 1 h at 70° C. Upon cooling, an emulsion was formed. For in vitro studies Tranilast was dissolved in dimethyl sulphoxide (DMSO). 3-Hydroxy-anthranilic acid (3-HAA) was purchased from Sigma (Poole, UK) and dissolved in PBS.
Male DBA/1 mice (8-12 weeks old) were immunized intradermally at the base of the tail with bovine type II collagen (200 μg) emulsified in complete Freund's adjuvant (CFA; Difco, West Moseley, UK). Arthritis was monitored clinically using the following scoring system: 0=normal, 1=slight swelling and/or erythema, and 2=pronounced oedematous swelling. Each limb was graded, giving a maximum score of 8 per mouse. In addition, paw-swelling was measured using calipers.
Histopathological assessment of arthritis was carried out in a blinded fashion on decalcified haematoxylin and eosin stained sections using a scoring system as follows: 0, normal; 1, minimal synovitis without cartilage/bone erosion; 2, synovitis with some marginal erosion but joint architecture maintained; 3, severe synovitis and erosion with loss of normal joint architecture. This research was approved by the local ethical review process committee and by the Home Office of Great Britain.
The ability of Tranilast to treat established CIA was tested. Mice were immunised with type II collagen in CFA. On day 1 of clinical arthritis (the day that arthritis was first observed) mice were randomly assigned to different treatment groups and given Tranilast (100 mg/kg/day, 200 mg/kg/day or 400 mg/kg/day) or vehicle alone over a 10 day period. […]
It is clearly of interest to establish what happens when treatment with Tranilast is stopped. […] Treatment was then stopped and mice were monitored for a further 7 days.

[3] = system: B cells stimulated with anti-CD40; assay: Purified B cell proliferation, anti-CD40, 3H-thymidine incorporation (Example 4); assay type: cell-based, mouse
Method: as §1, §2

[4] = system: T cells stimulated with anti-CD3/anti-CD28; assay: Purified T cell proliferation, anti-CD3/anti-CD28, 3H-thymidine incorporation (Example 4); assay type: cell-based, mouse
Method: as §1, §2

[5] = 100, 200 or 400 mg/kg/day, 10 days (FIG. 6)

COc1ccc(/C=C/C(=O)Nc2ccccc2C(=O)O)cc1OC [Tranilast, 2-[[3-(3,4-dimethoxyphenyl)-1-oxo-2-propenyl]amino]benzoic acid]
IFN-γ production by T-cells ([1]; FIG. 10C): dose-dependently reduced | IL-10 production by T-cells ([1]; FIG. 10D): dose-dependently inhibited | IL-5 production by T-cells ([1]; FIG. 10E): dose-dependently inhibited | day of relapse (exacerbation) of arthritis after cessation of therapy ([2]; 400 mg/kg/day days 1 to 5, monitored up to day 12 (FIG. 9)): 9 days | arthritis severity during the treatment period ([2]; 400 mg/kg/day, day 1 to day 5 of arthritis (FIG. 9)): dramatic reduction in arthritis severity | clinical scores [2, 5]: dose-dependent reduction | paw-swelling [2, 5]: dose-dependent reduction | histological severity of arthritis ([2]; day 10 (FIG. 6)): clear dose-dependent reduction | IC50 ([3]; Mus musculus, B-cell, anti-CD40, 72 h, 3H-thymidine (FIG. 10A), read-out: IC50 for inhibition of B cell proliferation): 73.1 µM | B cell proliferation ([3]; anti-CD40, varying doses (FIG. 10A)): dose-dependently inhibited | IC50 ([4]; Mus musculus, T-cell, anti-CD3/CD28, 72 h, 3H-thymidine (FIG. 10B), read-out: IC50 for inhibition of T cell proliferation): 28 µM | T cell proliferation ([4]; anti-CD3/CD28, varying doses (FIG. 10B)): dose-dependently inhibited
